From patent US20040162295A1, “Pharmaceutical compound” (priority 2001, published 2004)

Legend:
[1] = target: Factor Xa (Homo sapiens, UniProt P00742); assay: Factor Xa inhibition; assay type: biochemical
[2] = Oral exposure; assay type: in vivo
[3] = Stability study on crystalline forms (temperature, humidity, light); assay type: physicochemical; settings: for Morphological stability: high relative humidity (above 70%)
Method: Notes: % expressed with reference to material stored at −70° C.
% RH means percentage relative humidity.

[4] = Behaviour of the solid in the presence of water; assay type: physicochemical; settings: in the presence of water / suspended in distilled water, stirred 24 hours
Method: Stability in the presence of water is desirable in a product intended to be formulated in a pharmaceutical composition using a process that brings it into contact with water, such as a wet granulation process used in the preparation of a tablet.
1.5 g of Form 1 of 1-(indole-6-carbonyl-D-phenylglycinyl)-4-(1-methylpiperidin-4-yl)piperazine difumarate was suspended in 10 ml of distilled water and stirred for 24 hours. The suspension thickened after 5-6 hours, but stirring was continued for the remaining time. The suspension was centrifuged to isolate the solid. The solid was washed with cyclohexane and dried at ambient temperature under vacuum.

[5] = Vapor pressure isotherm determination / hygroscopicity; assay type: physicochemical
Text: The mono hydrochloride salt of 1-(indole-6-carbonyl-D-phenylglycinyl)-4-(1-methylpiperidin-4-yl)piperazine has also been prepared. The monohydrochloride salt was initially obtained as an amorphous solid. This solid was cycled through a vapor pressure isotherm determination, in which the solid initially deliquesced, then dehydrated.
Using a microbalance flow system, the original material was cycled through a vapor pressure isotherm determination, where the material deliquesced, then allowed to deydrate.

[6] = 40° C./75% RH, 7 Days, difumarate
[7] = 40° C./75% RH, 28 Days, difumarate

Factor Xa, sequence (P00742 235-488 limits assumed): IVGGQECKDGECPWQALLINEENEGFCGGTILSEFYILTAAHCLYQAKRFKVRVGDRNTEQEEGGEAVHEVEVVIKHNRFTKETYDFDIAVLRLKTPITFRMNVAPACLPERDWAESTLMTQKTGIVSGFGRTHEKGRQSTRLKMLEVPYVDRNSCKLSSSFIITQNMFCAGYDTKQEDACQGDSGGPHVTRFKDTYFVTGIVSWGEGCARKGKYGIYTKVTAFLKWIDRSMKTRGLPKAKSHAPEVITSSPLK
Factor Xa, sequence (P00742 41-179 partner limits assumed): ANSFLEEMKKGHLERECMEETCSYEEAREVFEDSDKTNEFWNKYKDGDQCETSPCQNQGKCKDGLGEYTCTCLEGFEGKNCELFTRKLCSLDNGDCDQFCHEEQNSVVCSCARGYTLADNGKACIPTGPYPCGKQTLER

| Stability study, % expressed with reference to material stored at −70° C. [3, 6] [%] | Stability study, % expressed with reference to material stored at −70° C. [3, 7] [%] | Stability study, % expressed with reference to material stored at −70° C. ([3]; 70° C., 7 Days, difumarate) [%] | Stability study, % expressed with reference to material stored at −70° C. ([3]; 70° C., 28 Days, difumarate) [%] | Morphological stability [3] | Stability of the crystalline form in the presence of water [4] | SMILES | also measured |
| --- | --- | --- | --- | --- | --- | --- | --- |
| – | – | – | – | – | – | CN1CCC(N2CCN(C(=O)[C@H](NC(=O)c3ccc4cc[nH]c4c3)c3ccccc3)CC2)CC1 [1-(indole-6-carbonyl-D-phenylglycinyl)-4-(1-methylpiperidin-4-yl)piperazine] | Inhibition of Factor Xa [1]: potent and selective inhibitor; Oral exposure [2]: good |
| 99.6 | 99.5 | 99.0 | 100.2 | morphologically stable | converted into Form 2 | CN1CCC(N2CCN(C(=O)[C@H](NC(=O)c3ccc4cc[nH]c4c3)c3ccccc3)CC2)CC1.O=C(O)/C=C/C(=O)O.O=C(O)/C=C/C(=O)O [Form 1, 1-(indole-6-carbonyl-D-phenylglycinyl)-4-(1-methylpiperidin-4-yl)piperazine difumarate] | Stability study, % expressed with reference to material stored at −70° C. ([3]; 40° C., 7 Days): 100.5%; Stability study, % expressed with reference to material stored at −70° C. ([3]; 40° C., 28 Days): 99.8%; Stability study, % expressed with reference to material stored at −70° C. ([3]; 50° C., 7 Days): 99.3%; Stability study, % expressed with reference to material stored at −70° C. ([3]; 50° C., 28 Days): 99.4%; Stability study, % expressed with reference to material stored at −70° C. ([3]; Light, 7 Days): 99.7%; Stability study, % expressed with reference to material stored at −70° C. ([3]; Light, 28 Days): 98.9% |
| 99.3 | 99.6 | 99.1 | 99.0 | morphologically stable | – | CN1CCC(N2CCN(C(=O)[C@H](NC(=O)c3ccc4cc[nH]c4c3)c3ccccc3)CC2)CC1.O=C(O)/C=C/C(=O)O.O=C(O)/C=C/C(=O)O [Form 2, 1-(indole-6-carbonyl-D-phenylglycinyl)-4-(1-methylpiperidin-4-yl)piperazine difumarate] | – |
| – | – | – | – | – | tended to convert into a gel | CN1CCC(N2CCN(C(=O)[C@H](NC(=O)c3ccc4cc[nH]c4c3)c3ccccc3)CC2)CC1 [chloroform solvate, 1-(indole-6-carbonyl-D-phenylglycinyl)-4-(1-methylpiperidin-4-yl)piperazine] | – |
| – | – | – | – | – | – | CN1CCC(N2CCN(C(=O)[C@H](NC(=O)c3ccc4cc[nH]c4c3)c3ccccc3)CC2)CC1.Cl [compound 1, 1-(indole-6-carbonyl-D-phenylglycinyl)-4-(1-methylpiperidin-4-yl)piperazine hydrochloride] | Hygroscopicity ([5]; amorphous and crystalline material): hygroscopic; Behaviour of the solid in vapor pressure isotherm determination ([5]; amorphous solid, microbalance flow system): deliquesced |
